EPA's ToxValDB 9.5 (doi:10.2903/j.efsa.2013.3131)

Assays:
Apis mellifera = details: acute, mortality
Bibionidae = details: chronic/long-term; other
Daphnia magna = details: chronic/long-term; duration: 21 days; reproduction
Landoltia sp. = details: chronic/long-term; duration: 7 days; biomass
Neomysis kadiakensis = details: acute; duration: 96 hours; mortality
Oncorhynchus mykiss = details: acute; duration: 96 hours; mortality
Oryctolagus sp. = details: reproduction developmental; body weight
Pimephales promelas = details: chronic/long-term; duration: 34 days; other
Pleurozium sp. = details: acute; duration: 96 hours; biomass
Rattus norvegicus = details: for LD50: acute, oral, mortality

| Compound | LD50 (Apis mellifera; dermal) | LD50 (Apis mellifera; oral, unspecified) | NOEC (Bibionidae) | LC50 (Colinus virginianus; acute, oral, diet, mortality) | LD50 (Colinus virginianus; acute, oral, mortality) | NOEC (Colinus virginianus; reproduction developmental) | NOEC (Daphnia magna) | NOEC (Landoltia sp.) | NOEC (Neomysis kadiakensis) | NOEC (Oncorhynchus mykiss) | NOAEL (Oryctolagus sp.) | NOEC (Pimephales promelas) | NOEC (Pleurozium sp.) | LD50 (Rattus norvegicus) | NOAEL (Rattus norvegicus; chronic, clinical signs) | NOAEL (Rattus norvegicus; chronic, duration: 2 years, F, ophthalmoscopic examination) | NOAEL (Rattus norvegicus; subchronic, duration: 90 days, ophthalmoscopic examination) | LC50 (Tagia sp.; acute, duration: 14 days, mortality) | NOEC (Tagia sp.; chronic/long-term, duration: 28 days, reproduction) | NOAEL (Rattus norvegicus; subchronic, duration: 90 days) |
| --- | --- | --- | --- | --- | --- | --- | --- | --- | --- | --- | --- | --- | --- | --- | --- | --- | --- | --- | --- | --- |
| CS(=O)(=O)c1ccc(C(=O)C2C(=O)CCCC2=O)c(Cl)c1COCC(F)(F)F [Tembotrione] | > 100 µg/piece | > 92.8 µg/piece | 2 mg/L | > 1790 mg/kg-day | > 2250 mg/kg-day | 22.2 mg/kg-day | 5 mg/L | 0.0032 mg/L | 0.046 mg/L | 100 mg/L | 1 mg/kg-day | 0.604 mg/L | 0.2 mg/L | > 2000 mg/kg-day | 0.8 mg/kg-day | 0.04 mg/kg-day | 0.07 mg/kg-day | 1000 mg/kg | 1.25 mg/kg |  |
| CS(=O)(=O)c1ccc(C(=O)C2C(=O)C(O)CC(O)C2=O)c(Cl)c1COCC(F)(F)F (configuration not stated) |  |  |  |  |  |  |  |  |  |  | 1 mg/kg-day |  |  | > 2000 mg/kg-day |  |  |  |  |  | 12.7 mg/kg-day |
